Test results: US12492186B2, “Bicyclic heterocyclic compounds useful as IRAK4 inhibitors” (BRISTOL-MYERS SQUIBB COMPANY, priority 2019, dated 2025)

Tests used:
IRAK4 = IRAK4 (Homo sapiens (Human), UniProt Q9NWZ3); assay: IRAK4 Inhibition Assay; type: biochemical; details: ATP 500 μM; IRAK4 0.6 nM; 60 min room temperature; Caliper LABCHIP 3000
Description: The assays were performed in U-bottom 384-well plates. The final assay volume was 30 μL prepared from 15 μL additions of enzyme and substrates (fluoresceinated peptide and ATP) and test compounds in assay buffer (20 mM HEPES pH 7.2, 10 mM MgCl2, 0.015% Brij 35 and 4 mM DTT). The reaction was initiated by the combination of IRAK4 with substrates and test compounds. The reaction mixture was incubated at room temperature for 60 min. and terminated by adding 45 μL of 35 mM EDTA to each sample. The reaction mixture was analyzed on the Caliper LABCHIP® 3000 (Caliper, Hopkinton, MA) by electrophoretic separation of the fluorescent substrate and phosphorylated product. Inhibition data were calculated by comparison to no enzyme control reactions for 100% inhibition and vehicle-only reactions for 0% inhibition. The final concentrations of reagents in the assays are ATP, 500 μM; FL-IPTSPITTTYFFFKKK peptide 1.5 μM; IRAK4, 0.6 nM; and DMSO, 1.6%.

Human whole blood = assay: IRAK4 Whole Blood Assay (IL-6 levels after stimulation with TLR2 agonist lipoteichoic acid); type: cell-based; details: 10 μg/mL lipoteichoic acid, 5 hours
Description: Human whole blood containing the anti-coagulant ACD-A was plated in 384-well plate (25 μL/well) and incubated with compounds for 60 minutes at 37° C. in a 5% CO2 incubator. The blood was stimulated with a TLR2 agonist, 10 μg/mL final concentration of lipoteichoic acid (Invivogen, San Diego, CA) in 25 μL RPMI (Gibco) for 5 hours in a 5% CO2 incubator. At the end of the incubation, plates were centrifuged at 2300 rpm for 5 minutes. Supernatants were harvested and analyzed for IL-6 levels by Flow Cytometry beads assay (BD Biosciences, San Jose, CA).

IRAK4, sequence (Q9NWZ3 whole entry, species assumed): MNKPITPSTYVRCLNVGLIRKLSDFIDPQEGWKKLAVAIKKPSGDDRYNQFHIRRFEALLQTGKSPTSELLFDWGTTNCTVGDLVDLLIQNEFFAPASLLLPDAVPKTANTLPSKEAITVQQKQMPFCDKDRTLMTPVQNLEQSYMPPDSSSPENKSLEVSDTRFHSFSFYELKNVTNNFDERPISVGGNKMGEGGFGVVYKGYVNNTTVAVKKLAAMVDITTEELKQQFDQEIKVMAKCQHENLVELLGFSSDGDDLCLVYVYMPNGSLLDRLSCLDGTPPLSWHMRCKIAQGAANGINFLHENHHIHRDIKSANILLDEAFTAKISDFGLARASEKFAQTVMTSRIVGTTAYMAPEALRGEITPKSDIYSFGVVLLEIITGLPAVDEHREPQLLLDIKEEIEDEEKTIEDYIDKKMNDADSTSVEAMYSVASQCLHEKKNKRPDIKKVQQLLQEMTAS

Structure (SMILES)	IC50 (IRAK4)	EC50 (Human whole blood)
CC(C)Nc1c(C(=O)NC[C@@H](F)C(C)(C)O)cnc2ccc(-c3cn[nH]c3)cc12 [Example 1, (R)—N-(2-fluoro-3-hydroxy-3-methylbutyl)-4-(isopropylamino)-6-(1H-pyrazol-4-yl) quinoline-3-carboxamide]	2.6 nM	501 nM
CC(C)Nc1c(C(=O)NC[C@@H](F)C(C)(C)O)cnc2ccc(-c3cncs3)cc12 [Example 7, (R)—N-(2-fluoro-3-hydroxy-3-methylbutyl)-4-(isopropylamino)-6-(thiazol-5-yl)quinoline-3-carboxamide]	8.2 nM	5710 nM
CCOCCNC(=O)c1cnc2ccc(-c3cn[nH]c3)cc2c1NC(C)C [Example 10, N-(2-ethoxyethyl)-4-(isopropylamino)-6-(1H-pyrazol-4-yl)quinoline-3-carboxamide]	15 nM	2260 nM
CC(C)Nc1c(C(=O)N[C@H]2CC[C@H](O)CC2)cnc2ccc(-c3cn[nH]c3)cc12 [Example 11, N-((1r,4r)-4-hydroxycyclohexyl)-4-(isopropylamino)-6-(1H-pyrazol-4-yl)quinoline-3-carboxamide]	9.5 nM	1670 nM
CC(C)Nc1c(C(=O)NCc2cnco2)cnc2ccc(-c3cn[nH]c3)cc12 [Example 14, 4-(isopropylamino)-N-(oxazol-5-ylmethyl)-6-(1H-pyrazol-4-yl)quinoline-3-carboxamide]	14.1 nM	868 nM
CC(C)CCNC(=O)c1cnc2ccc(-c3cn[nH]c3)cc2c1NC(C)C [Example 15, N-isopentyl-4-(isopropylamino)-6-(1H-pyrazol-4-yl)quinoline-3-carboxamide]	7.7 nM	675 nM
CC(C)Nc1c(C(=O)NCCC(C)(C)O)cnc2ccc(-c3cn[nH]c3)cc12 [Example 17, N-(3-hydroxy-3-methylbutyl)-4-(isopropylamino)-6-(1H-pyrazol-4-yl)quinoline-3-carboxamide]	8 nM	936 nM
CC(C)Nc1c(C(=O)NCc2nnc[nH]2)cnc2ccc(-c3cn[nH]c3)cc12 [Example 22, N-((4H-1,2,4-triazol-3-yl)methyl)-4-(isopropylamino)-6-(1H-pyrazol-4-yl)quinoline-3-carboxamide]	7.5 nM	6450 nM
CC(C)Nc1c(C(=O)N[C@H]2CC[C@H](N)CC2)cnc2ccc(-c3cn[nH]c3)cc12 [Example 23, N-((1r,4r)-4-aminocyclohexyl)-4-(isopropylamino)-6-(1H-pyrazol-4-yl)quinoline-3-carboxamide]	7.2 nM	1700 nM
CC(=O)N[C@H]1CC[C@H](NC(=O)c2cnc3ccc(-c4cn[nH]c4)cc3c2NC(C)C)CC1 [Example 24, N-((1r,4r)-4-acetamidocyclohexyl)-4-(isopropylamino)-6-(1H-pyrazol-4-yl)quinoline-3-carboxamide]	7.7 nM	584 nM
CC(O)CCNC(=O)c1cnc2ccc(-c3cn[nH]c3)cc2c1NCC(F)F (stereo not shown) [Example 65, 4-((2,2-difluoroethyl)amino)-N-(3-hydroxybutyl)-6-(1H-pyrazol-4-yl)quinoline-3-carboxamide]	–	2200 nM
CC(C)Nc1c(C(=O)NCCc2c[nH]cn2)cnc2ccc(-c3cn[nH]c3)cc12 [Example 102, N-(2-(1H-imidazol-4-yl)ethyl)-4-(isopropylamino)-6-(1H-pyrazol-4-yl)quinoline-3-carboxamide]	23 nM	–
CC(C)Nc1c(C(=O)NCCc2ncn[nH]2)cnc2ccc(-c3cn[nH]c3)cc12 [Example 104, N-(2-(1H-1,2,4-triazol-5-yl)ethyl)-4-(isopropylamino)-6-(1H-pyrazol-4-yl) quinoline-3-carboxamide]	35.4 nM	–
CC(C)Nc1c(C(=O)NCC2(C)NC(=O)NC2=O)cnc2ccc(-c3cn[nH]c3)cc12 (stereo not shown) [Example 105, 4-(isopropylamino)-N-((4-methyl-2,5-dioxoimidazolidin-4-yl)methyl)-6-(1H-pyrazol-4-yl)quinoline-3-carboxamide]	338 nM	–
CC(C)Nc1c(C(=O)NCCc2ncno2)cnc2ccc(-c3cn[nH]c3)cc12 [Example 106, N-(2-(1,2,4-oxadiazol-5-yl)ethyl)-4-(isopropylamino)-6-(1H-pyrazol-4-yl)quinoline-3-carboxamide]	118 nM	–
CNc1c(C(N)=O)cnc2ccc(-c3cn[nH]c3)cc12 [Example 108, 4-(methylamino)-6-(1H-pyrazol-4-yl)quinoline-3-carboxamide]	554 nM	–
CC(C)Nc1c(C(=O)NCCc2nnn[nH]2)cnc2ccc(-c3cn[nH]c3)cc12 [Example 110, N-(2-(1H-tetrazol-5-yl)ethyl)-4-(isopropylamino)-6-(1H-pyrazol-4-yl)quinoline-3-carboxamide]	212 nM	–

Structure (SMILES)	IC50 (IRAK4)	EC50 (Human whole blood)
CNc1c(C(N)=O)cnc2ccc(-c3cncs3)cc12 [Example 111, 4-(methylamino)-6-(thiazol-5-yl)quinoline-3-carboxamide]	1550 nM	–
O=C(NCC1CCS(=O)(=O)CC1)c1cnc2ccc(-c3cn[nH]c3)cc2c1NC1CC1 [Example 116, 4-(cyclopropylamino)-N-((1,1-dioxidotetrahydro-2H-thiopyran-4-yl)methyl)-6-(1H-pyrazol-4-yl)quinoline-3-carboxamide]	43.7 nM	–
CC(C)Cc1nc(-c2cnc3ccc(-c4cn[nH]c4)cc3c2NC(C)C)n[nH]1 [Example 124, 3-(5-isobutyl-1H-1,2,4-triazol-3-yl)-N-isopropyl-6-(1H-pyrazol-4-yl)quinolin-4-amine]	107 nM	–
CCCc1nc(-c2cnc3ccc(-c4cn[nH]c4)cc3c2NC(C)C)n[nH]1 [Example 125, N-isopropyl-3-(5-propyl-1H-1,2,4-triazol-3-yl)-6-(1H-pyrazol-4-yl)quinolin-4-amine]	83.6 nM	–
CC(C)CCc1nc(-c2cnc3ccc(-c4cn[nH]c4)cc3c2NC(C)C)n[nH]1 [Example 126, 3-(5-isopentyl-1H-1,2,4-triazol-3-yl)-N-isopropyl-6-(1H-pyrazol-4-yl)quinolin-4-amine]	34.4 nM	–
CC(C)Nc1c(-c2cc(C3CCCCN3)no2)cnc2ccc(-c3cn[nH]c3)cc12 (stereo not shown) [Example 128, N-isopropyl-3-(3-(piperidin-2-yl)isoxazol-5-yl)-6-(1H-pyrazol-4-yl)quinolin-4-amine]	–	758 nM
CC(C)Nc1c(-c2cn(CCS(C)(=O)=O)nn2)cnc2ccc(-c3cn[nH]c3)cc12 [Example 137, N-isopropyl-3-(1-(2-(methylsulfonyl)ethyl)-1H-1,2,3-triazol-4-yl)-6-(1H-pyrazol-4-yl)quinolin-4-amine]	38.8 nM	–
CC(C)Nc1c(C(=O)NCCC(C)(C)O)cnc2ccc(-c3ccncc3)nc12 [Example 145, N-(3-hydroxy-3-methylbutyl)-4-(isopropylamino)-6-(pyridin-4-yl)-1,5-naphthyridine-3-carboxamide]	24.2 nM	–
CC(C)Nc1c(C(=O)NCCC(C)(C)O)cnc2ccc(-c3cccnc3)nc12 [Example 146, N-(3-hydroxy-3-methylbutyl)-4-(isopropylamino)-6-(pyridin-3-yl)-1,5-naphthyridine-3-carboxamide]	89.8 nM	–
CC(C)Nc1c(C(=O)NCCC2CC2)cnc2ccc(Nc3cncc(F)c3)nc12 [Example 147, N-(2-cyclopropylethyl)-6-((5-fluoropyridin-3-yl)amino)-4-(isopropylamino)-1,5-naphthyridine-3-carboxamide]	900 nM	–
CC(C)Nc1c(C(=O)NCCC2CC2)cnc2ccc(-c3cncc(C#N)c3)nc12 [Example 151, 6-(5-cyanopyridin-3-yl)-N-(2-cyclopropylethyl)-4-(isopropylamino)-1,5-naphthyridine-3-carboxamide]	1280 nM	–
CC(=O)N[C@H]1CC[C@H](NC(=O)c2cnc3ccc(-c4ccnc(C#N)c4)nc3c2NC(C)C)CC1 [Example 152, N-((1r,4r)-4-acetamidocyclohexyl)-6-(2-cyanopyridin-4-yl)-4-(isopropylamino)-1,5-naphthyridine-3-carboxamide]	78 nM	–
CC(=O)N[C@H]1CC[C@H](NC(=O)c2cnc3ccc(-c4cccnc4)nc3c2NC(C)C)CC1 [Example 153, N-((1r,4r)-4-acetamidocyclohexyl)-4-(isopropylamino)-6-(pyridin-3-yl)-1,5-naphthyridine-3-carboxamide]	31.6 nM	–
CC(=O)N[C@H]1CC[C@H](NC(=O)c2cnc3ccc(-c4cncc(C#N)c4)nc3c2NC(C)C)CC1 [Example 154, N-((1r,4r)-4-acetamidocyclohexyl)-6-(5-cyanopyridin-3-yl)-4-(isopropylamino)-1,5-naphthyridine-3-carboxamide]	92.7 nM	–
CC(C)Nc1c(C(=O)NCCC2CC2)cnc2ccc(-c3ccnc(C#N)c3)nc12 [Example 157, 6-(2-cyanopyridin-4-yl)-N-(2-cyclopropylethyl)-4-(isopropylamino)-1,5-naphthyridine-3-carboxamide]	280 nM	–
CC(C)Nc1c(C(=O)NC[C@@H](F)C(C)(C)O)cnc2ncc(-c3cn[nH]c3)cc12 [Example 161, (R)—N-(2-fluoro-3-hydroxy-3-methylbutyl)-4-(isopropylamino)-6-(1H-pyrazol-4-yl)-1,8-naphthyridine-3-carboxamide]	1210 nM	–
